Source: US8394856B2, “(-)-Hydroxycitric acid for controlling inflammation” (Glykon Technologies Group, LLC, priority 2002, dated 2013)

Experiments:
[1] = literature (Sullivan and Gruen 1985); cited from earlier work
[2] = treated rats; Roche researchers (Sullivan and Triscari 1976); cited from earlier work
[3] = Body weight in the same rat study; type: in vivo, rats; details: week 6; data not shown
Source text: To test the properties of HCA in various forms under conditions similar to those found in human clinical trials, the inventor arranged for rats to be fed a diet in which 30% of the calories were obtained from fat under standard conditions, with a further approximately 20% of the calories being supplied as simple sugars. Such a dietary combination of fat and simple sugars is noted as promoting a variety of metabolic imbalances and dysfunctions. The rats were intubated twice daily with one of five HCA salts or placebo. On weekends, the HCA was added to the food at an approprate dosage. The amount of HCA in each arm of 8 animals was based on the minimum dosage which had been found effective in the form of the pure trisodium salt of HCA in tests by Hoffmann-La Roche in animals ingesting a 70% glucose diet, i.e., 0.33 mmoles/kg body weight HCA given twice per day. The HCA salts used were these: KCaHCA=a mixed potassium and calcium or double metal HCA salt commercially marketed as being entirely water soluble and of relatively high purity; KHCA=a relatively clean commercial potassium salt of HCA with a good mineral ligand attachment supplying 4467 mg potassium/100 grams of material; KMgHCA=three different dosage levels of an experimental potassium and magnesium salt with special characteristics, but suspected of being relatively unstable when exposed to stomach acid. […]

C-reactive protein = C-reactive protein in serum of rats fed a 30% fat, approximately 20% simple sugar diet; type: in vivo; details: salt approximately 76 mg/day
Source text: To test the properties of HCA in various forms under conditions similar to those found in human clinical trials, the inventor arranged for rats to be fed a diet in which 30% of the calories were obtained from fat under standard conditions, with a further approximately 20% of the calories being supplied as simple sugars. Such a dietary combination of fat and simple sugars is noted as promoting a variety of metabolic imbalances and dysfunctions. The rats were intubated twice daily with one of five HCA salts or placebo. On weekends, the HCA was added to the food at an approprate dosage. The amount of HCA in each arm of 8 animals was based on the minimum dosage which had been found effective in the form of the pure trisodium salt of HCA in tests by Hoffmann-La Roche in animals ingesting a 70% glucose diet, i.e., 0.33 mmoles/kg body weight HCA given twice per day. […]
Tests were performed for C-reactive protein. […] Optical Density (OD) readings in the test kit used were 1 unit equals 50 picograms/mL. […]

## O=C(O)CC(O)(C(=O)O)C(O)C(=O)O (single isomer, unassigned; (-)) [HCA, (−)-Hydroxycitric acid]
[1]
  crossing of the blood-brain barrier: does not cross the blood-brain barrier
[2]
  plasma levels of glucose, insulin, or free fatty acids relative to controls: no significant differences

## O=C([O-])CC(O)(C(=O)[O-])C(O)C(=O)[O-].[K+].[K+].[K+] (centres unmarked) [KHCA, potassium hydroxycitrate]
[3]
  body weight versus control: greatest trend differences
C-reactive protein
  absolute CRP readings at week 4 compared with initially: lower at week 4 than initially
C-reactive protein; intubated twice daily, serum, start to week 4, 1 OD unit equals 50 picograms/mL
  Δ OD units after 4 wks (C-reactive protein): −155 OD units
